For one assay, the system named is NOD mouse. To be noted: cited from earlier work; for Protection in the NOD mouse: protective therapeutic interventions suggested to depend on NK cell activities; for Protection from diabetes: pre-diabetic NOD mice.
A further assay concerns BB rats. The following applies: cited from earlier work.
Assay [1] concerns average virtual NOD mouse. Kind of assay: Simulation of therapy protocols in the average virtual NOD mouse (computer model of type 1 diabetes). The following applies: expectation from published data. The text has this:
One application of a NOD mouse type 1 diabetes model is to improve understanding of type 1 diabetes pathogenesis in the NOD mouse. Model development therefore focused on islet β cell autoimmunity and tolerance, as well as related mechanisms and interventions. To provide for general immunologic function and not only progression to diabetes, the development effort included representation of several NOD mouse phenotypes. The first phenotype was an average diabetic virtual mouse. […] Typically, a simulation of the average virtual mouse concludes shortly after diabetes diagnosis, which is consistent with post-diabetic sacrifice of NOD mice in the laboratory. […] Additional virtual mice, each with different clinical behaviors and/or underlying pathophysiologies, have also been generated. Similarly, development of modals of type 1 diabetes in other mammals, such as humans, can include the development of various virtual patients representing normal animals or animals having varying degrees of severity or progression of type 1 diabetes.
Because diabetes is typically assessed by measuring blood or urinary glucose, blood glucose levels were represented in the model's clinical read-out. Hyperglycemia (a diabetes indicator) was defined as a glucose level in excess of a commonly used standard (e.g., 200, 250, 300, 350 mg/dl). Glucose control was regulated based on a mathematical relationship describing interactions between blood insulin and glucose concentrations.
These include (i) dynamics of diabetes onset, (ii) dynamics of pancreatic lymph node (PLN) lymphocyte activation and expansion, and (iii) dynamics of islet infiltrate.
Numerous interventions have been tested in the NOD mouse. A major purpose of implementing selected interventions is to provide constraints for the virtual mouse, where constraints are defined as additional behavioral criteria that the virtual mouse should reproduce in a manner substantially consistent with published data. […]

Assay [2] deals with recent onset diabetic patients. To be noted: cited from earlier work; for Therapeutic response: insulin tolerization.

Like-named read-outs stand apart in the source and are kept apart here.

As for `CN(C(=O)c1c(O)c2ccccc2n(C)c1=O)c1ccccc1` [linomide], in the assay on NOD mouse, the “Protection in the NOD mouse” value is given as “protection”.
Take `NC(=O)c1cccnc1` [nicotinamide]: the Protection from diabetes result is on record as “protection” with NOD mouse and “not” with BB rats.
As for “Exendin-4: exendin-4; enhances glucose-dependent insulin secretion”, in the assay on NOD mouse (Exendin-4, Ogawa 2004, 7-17 days after diagnosis of diabetes, 12 nmol/kg for 4 consec. days twice), the Incidence result is listed as “No remission”. Further, in assay [1] (Exendin-4, Ogawa 2004 protocol), the “Expected virtual mouse outcome” value is listed as “No remission”.
For “Exogenous TGF-β: exogenous TGF-β delivered as 200 μg of pCMV-TGF-β1”, in the assay with NOD mouse (Exogenous TGF-β, Piccirillo 1998, 9-32 wks, 200 μg of pCMV-TGF-β1 every 2 wks, at 32 wks, vs 100% control), the Incidence was 42% vs. 100% control at 32 wks. Further, the Insulitis result in the assay with NOD mouse (Exogenous TGF-β, Piccirillo 1998) was “Reduced severity of insulitis”. Further, the Other observations result in the assay on NOD mouse (Exogenous TGF-β, Piccirillo 1998, islet mRNA levels) was “Reduced mRNA levels of islet IL-12 & IFN-γ”.
For IFN-α, the “Protection in the NOD mouse” value in the assay on NOD mouse is reported as “protective”.
In the case of “Oral insulin: orally administered (porcine) insulin for induction of oral tolerance”, the Incidence is reported as 26% treated vs with NOD mouse (Oral insulin, Homann 1999 (1 mg), Rx 5-45 weeks, at 45 weeks, vs 63% control); 44% treated vs with NOD mouse (Oral insulin, Zhang 1991 (0.1 mg), Rx 5-52 weeks, at 52 weeks, vs 49% control); 26% treated vs in the assay with NOD mouse (Oral insulin, Zhang 1991 (1 mg), Rx 5-52 weeks, at 52 weeks, vs 49% control). Moreover, the Protection against diabetes result in the assay on NOD mouse (oral administration of insulin, induction of oral tolerance) is recorded as “protect against diabetes”. For the same molecule, the Protection from diabetes entry in the assay on NOD mouse is “protection”; in the assay on BB rats, “not”. The “Expected virtual mouse outcome” value is given as “No diabetes at 45” in assay [1] (Oral insulin, Homann 1999 (1 mg), at 45 weeks) and “No diabetes at 52 weeks” in assay [1] (Oral insulin, Zhang 1991 (1 mg), at 52 weeks).
Regarding “hOKT3γ1 (Ala-Ala): modified, dimeric non-FcR binding anti CD3 antibody used in human clinical trials”, the “Human clinical trial results” value in assay [2] (recent onset diabetic patients, Herold 2002) was “promising”.
Turning to “insulin: insulin tolerization therapy tested in human clinical trials”, the Therapeutic response result is reported as “responded poorly” in assay [2] (general clinical trial population) and “better therapeutic responses” in assay [2] (patients characterized by high insulin autoantibody titers).
Take poly(I:C): in the assay with NOD mouse, the “Protection in the NOD mouse” value was “protective”.

Values taken from patent US20070071681A1, “Apparatus and method for computer modeling type 1 diabetes” (Entelos, Inc., priority 2005, published 2007).
